{"source": "patent US9464291B2", "about": "“Methods and compositions for the treatment of cancer” (University of South Alabama, priority 2012, dated 2016)", "key": {"[1]": {"tested_on": "RAW264.7 cells", "assay": "Osteoclast resorption activity, OAAS plates", "format": "cell-based, murine", "conditions": "DM supplemented with SHH (100 nM) or OPN (100 ng/ml)", "experimental": "Osteoclast differentiation and activity assays—Tartarate-resistant acid phosphatase (TRAP) assay was conducted for RAW 264.7 following the manufacturer's protocol (Sigma, St. Louis, Mo.). This assay was indicative of the extent of differentiation. OAAS plates (Osteogenic Core Technologies, Choongnam, Republic of Korea) were utilized to measure osteoclastic activity. RAW 264.7 cells (25×103) were inoculated in 48-well plates. Cells were treated with serum-free conditioned media from breast cancer cells or 100 nM SHH or 100 ng/ml OPN on the following day. Media was changed every two days and the experiments were terminated either on day 6 (day 7 for knockdown experiments, with transfections being done on the sixth day). At the completion, cells were detached with 5% sodium hypochlorite and the wells were observed under a Nikon Eclipse TS 100 microscope at 10× magnification. […] The percentage of area resorbed was calculated using the NIS-Elements BR. 3.1 software."}, "[2]": {"tested_on": "OPN promoter", "assay": "OPN promoter luciferase reporter assay in melanoma cell lines", "format": "cell-based, human", "conditions": "MDA-MB-435, MCC012A, MCC012F", "experimental": "Empty pGL3 vector was used as control. Hedgehog ligands were added to the well 6 h prior to harvesting the cells (approximately 33 hr of initiation of transfection) for assay. Readings were normalized to total protein content. Each parameter was studied in triplicate and the experiment repeated at least 3 times. The data are represented as percent luciferase activity, which was derived as a percent of the relative light units in treated groups compared with the untreated groups."}, "[3]": {"tested_on": "c-jun", "assay": "c-jun mRNA (semi-quantitative PCR) and protein (Western blot) in A2780-CP70 cells", "format": "cell-based, human", "experimental": "Controls included α-tubulin and histone deacetylase 3. C-jun antibody recognizes non-phosphorylated c-jun protein.\nc-jun and c-fos mRNA expression was examined in A2780-CP70 cells transfected with anti-GLI1 shRNA construct at 6 hr, 24 hr, 48 hr, and 72 hr post-transfection using semi-quantative PCR analysis (FIG. 41).\nA2780-CP70 cells were transfected with an IC50 dose of anti-Gli1 shRNA (treated) construct or vector (control). Total intracellular c-jun mRNA and c-jun protein was measured at 6 hr, 24 hr, 48 hr, and 72 hr.\nC-jun mRNA and protein levels were further examined in cisplatin-resistant A2780-CP70 cells treated with an IC50 dose of anti-Gli1 shRNA. FIG. 78 depicts mRNA levels (panel A) and protein levels (panel B) in cells at 6, 24, 48, and 72 hours post-treatment."}, "[4]": {"tested_on": "OPN, MMP9, Cathepsin K (CTSK)", "assay": "OPN, MMP9 and CTSK expression by osteoclasts", "format": "cell-based, murine", "conditions": "DM supplemented with cyclopamine", "source_text": "Quantitative RT-PCR (qRT-PCR)-cDNA was generated using High Capacity Reverse Transcriptase Kit (Applied Biosystems, Foster City, Calif.). […] All reactions were done in triplicate."}, "[5]": {"tested_on": "ERCC1, XPD, XRCC1", "assay": "ERCC1, XPD, XRCC1 mRNA / protein levels in A2780-CP70 cells", "format": "cell-based, human", "conditions": "A2780-CP70"}, "[6]": {"tested_on": "OPN", "assay": "Secreted OPN protein, immunoblot of conditioned medium, MDA-MB-435", "format": "cell-based, human", "conditions": "10 μM and 20 μM cyclopamine", "experimental": "Stable vector only and non-targeting (scrambled control) transfectants were also generated. Stable transfectants were selected on medium supplemented with 500 μg/ml Geneticin (Invitrogen). The four GLI1-knocked down clones chosen were based on the extent of GLI1 knockdown and were termed KO1, KO2, KO3, and KO4. The expression of OPN was restored in the KO1 cells by transfecting with pcDNA3.1-OPN. A corresponding vector-only transfectant was also generated. Transfectants were selected on medium containing Geneticin (500 μg/ml) and hygromycin (750 μg/ml). Serum-free conditioned medium harvested from approximately 3.0×10^6 cells after 24 hr was assayed for OPN by immunoblotting.\nWestern Blotting Analysis—Whole cell lysates were collected in Nonidet P-40 buffer (150 mM NaCl, 50 mM Tris, 1% Nonidet P-40). Isolation of cytosolic and nuclear fractions was done as previously reported (15). Total protein (30 μg) was resolved by SDS-PAGE gel and transferred to polyvinylidene difluoride membranes. […] Secreted OPN was assessed by loading an equal quantity of protein from the serum-free conditioned medium. […]"}}, "note": "Entries after “also recorded” stand apart in the source; their conditions may differ.", "data": [{"molecule": "SHH: recombinant Sonic hedgehog ligand (R & D Systems)", "values": [{"measurement": "osteoclast activity (area resorbed)", "setting": "[1]", "result": "notably enhances (p<0.001) osteoclast activity"}, {"measurement": "OPN promoter activity", "setting": "[2]", "result": "up-regulated the promoter activity of OPN"}]}, {"molecule": "CC1=C2C[C@H]3[C@@H](CC=C4C[C@@H](O)CC[C@@]43C)[C@@H]2CC[C@]12O[C@@H]1C[C@H](C)CN[C@H]1[C@H]2C", "note": "[cyclopamine]", "values": [{"measurement": "c-jun mRNA increase", "setting": "[3]; 70 μM cyclopamine, 6 hr vs 0 hr", "result": 3, "unit": "fold"}, {"measurement": "c-jun mRNA increase (peak)", "setting": "[3]; 70 μM cyclopamine, 24 hr vs 0 hr", "result": 13, "unit": "fold"}, {"measurement": "time of peak c-jun level", "setting": "[3]; A2780-CP70, IC50 dose of agent", "result": "about 48 hours"}, {"measurement": "expression of OPN, MMP9 and CTSK by the osteoclasts", "setting": "[4]", "result": "significantly reduces the expression of OPN, MMP9 and CTSK"}, {"measurement": "ERCC1, XPD, XRCC1 mRNA upregulation over baseline", "setting": "[5]; IC50 cyclopamine 24 hours, then 30 μM cisplatin 1 hour (data not shown)", "result": "approximately 2 fold"}, {"measurement": "time of highest ERCC1, XPD, XRCC1 mRNA levels after cisplatin exposure", "setting": "[5]; cyclopamine pretreatment vs cisplatin alone", "result": 24, "unit": "h"}, {"measurement": "ERCC1, XPD, XRCC1 mRNA levels after agent alone", "setting": "[5]; levels associated with 50% cell killing, 6-72 hr", "result": "no increase; also recorded: no detected effect"}, {"measurement": "OPN protein in the secretome", "setting": "[6]", "result": "decreased levels of OPN protein"}]}]}
